According to PMC11509018, “Evaluation of the Role of Tanshinone I in an In Vitro System of Charcot-Marie-Tooth Disease Type 2N” (International Journal of Molecular Sciences, 2024):

Key:
[1] = target: T1, AlaRS G102R binding to GST-Nrp1 b1 (Homo sapiens, UniProt P49588, G102R); assay: GST pull down assay; conditions: 20 µM Tanshinone I, ImageJ, average of three repeats
T1 construct: made in house; host or cells: E. coli BL21 (DE3), pET-21a for AlaRS
T1 sequence (P49588 1-968 G102R): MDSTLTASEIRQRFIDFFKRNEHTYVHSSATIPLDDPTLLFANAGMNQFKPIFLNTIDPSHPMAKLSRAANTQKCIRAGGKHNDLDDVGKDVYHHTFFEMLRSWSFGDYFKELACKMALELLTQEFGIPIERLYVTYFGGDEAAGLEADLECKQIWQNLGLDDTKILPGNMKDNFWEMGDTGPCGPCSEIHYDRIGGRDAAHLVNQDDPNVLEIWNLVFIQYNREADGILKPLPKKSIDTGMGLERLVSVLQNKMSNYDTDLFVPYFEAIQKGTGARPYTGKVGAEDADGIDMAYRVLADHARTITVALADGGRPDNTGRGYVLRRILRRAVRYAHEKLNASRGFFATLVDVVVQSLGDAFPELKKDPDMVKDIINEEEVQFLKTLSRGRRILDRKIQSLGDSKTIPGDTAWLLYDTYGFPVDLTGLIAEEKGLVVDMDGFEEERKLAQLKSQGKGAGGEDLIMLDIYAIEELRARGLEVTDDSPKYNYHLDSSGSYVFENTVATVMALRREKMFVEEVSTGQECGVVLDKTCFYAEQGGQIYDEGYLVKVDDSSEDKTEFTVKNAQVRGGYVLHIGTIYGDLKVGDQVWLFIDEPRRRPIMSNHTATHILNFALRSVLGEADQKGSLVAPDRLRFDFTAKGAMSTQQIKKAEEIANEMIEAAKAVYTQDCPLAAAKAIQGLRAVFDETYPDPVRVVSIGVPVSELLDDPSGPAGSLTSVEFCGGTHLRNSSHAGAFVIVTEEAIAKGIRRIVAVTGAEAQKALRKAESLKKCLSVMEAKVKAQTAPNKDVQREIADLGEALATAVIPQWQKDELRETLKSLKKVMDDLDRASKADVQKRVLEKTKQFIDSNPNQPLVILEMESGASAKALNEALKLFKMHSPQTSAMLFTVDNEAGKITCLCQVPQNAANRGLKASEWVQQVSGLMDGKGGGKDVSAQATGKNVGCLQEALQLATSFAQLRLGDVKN

[2] = test system: 293T cells; assay: Cell viability (CCK-8 assay); assay type: cell-based; conditions: up to 40 μM, 24 h
Protocol: (§1) Further validation of the safety and efficacy of Tanshinone I involved conducting cytotoxicity assays to ensure minimal toxicity to normal cells, while effectively inhibiting the abnormal interaction between AlaRS CMT mutants and Nrp1. We used the CCK-8 assay to evaluate the effects of Tanshinone I on 293T and NSC34 cells. Cells were treated with different concentrations of Tanshinone I for 24 h, followed by incubation with CCK-8 reagent. […] The Cell Counting Kit-8 (CCK-8) assay was performed to assess cell viability following the manufacturer’s instructions. Briefly, cells were seeded at an initial density of 5 × 10^3 cells per well in a 96-well plate and incubated overnight. The following day, the cells were treated with various concentrations of Tanshinone I. After 24 h of treatment, 10 μL of CCK-8 reagent (GlpBio, Montclair, CA, USA) was added to each well, and the plate was incubated at 37 °C with 5% CO2 for 1.5 h. Absorbance was then measured at 450 nm using a multimode microplate reader. The experiment was repeated three times.

[3] = test system: NSC34 cells; assay: Cell viability (CCK-8 assay); assay type: cell-based; conditions: up to 40 μM, 24 h
Protocol: as §1

Mean density band (G102R), relative quantification of AlaRS mutant pulled down [1]: 0.76
SMILES: Cc1coc2c1C(=O)C(=O)c1c-2ccc2c(C)cccc12 [Tanshinone I]
Cell viability [2]: did not significantly affect the viability | Cell viability [3]: did not significantly affect the viability
